Experimental data: the supplement of paper PMC8253809

Legend:
DIPGX29 [1] = H3.3 K27M diffuse intrinsic pontine glioma line; assay: EC50 (inflection of fitted growth-inhibition curve) (log10 M)
In short: (§1)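 Treatment used a pin tool and a 10-point threefold dilution series, mean top concentration 35 μM, run in triplicate on patient-derived pHGG/DIPG cell lines and astrocyte controls in 1% Geltrex-coated 384-well plates. Plates were kept at 37 °C, 5% CO2 for 7 days (iAstro: 3 days). Log2-transformed CellTiter-Glo luminescence was scaled per plate to % activity between negative (solvent) and positive control wells and pooled before fitting. EC50 and maximal response (yFin) came from the three- or four-parameter log-logistic fit chosen by lowest AICc.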

DIPGX37 [2] = H3.3 K27M diffuse intrinsic pontine glioma line; assay: as above
In short: as §1

DIPGX7 [3] = H3.3 K27M diffuse intrinsic pontine glioma line; assay: as above
In short: as §1

DIPGX9 [4] = diffuse intrinsic pontine glioma line; assay: as above
In short: as §1

HABS [5] = astrocyte control; assay: as above
In short: as §1

HGGX39 [6] = paediatric high-grade glioma line; assay: as above
In short: as §1

HGGX6 [7] = H3.3 G34R paediatric high-grade glioma line; assay: as above
In short: as §1

SUDIPGIV [8] = diffuse intrinsic pontine glioma line; assay: as above
In short: as §1

SUDIPGVI [9] = diffuse intrinsic pontine glioma line; assay: as above
In short: as §1

SUDIPGXIII [10] = diffuse intrinsic pontine glioma line; assay: as above
In short: as §1

SUDIPGXIX [11] = diffuse intrinsic pontine glioma line; assay: as above
In short: as §1

SUDIPGXVII [12] = diffuse intrinsic pontine glioma line; assay: as above
In short: as §1

DIPGX29 [13] = assay: maximal growth inhibition (yFin) relative to DMSO / staurosporine; higher = more efficacious
In short: as §1

DIPGX37 [14] = assay: as above
In short: as §1

DIPGX7 [15] = assay: as above
In short: as §1

DIPGX9 [16] = assay: as above
In short: as §1

HABS [17] = assay: as above
In short: as §1

HGGX39 [18] = assay: as above
In short: as §1

HGGX6 [19] = assay: as above
In short: as §1

SUDIPGIV [20] = assay: as above
In short: as §1

SUDIPGVI [21] = assay: as above
In short: as §1

SUDIPGXIII [22] = assay: as above
In short: as §1

SUDIPGXIX [23] = assay: as above
In short: as §1

SUDIPGXVII [24] = assay: as above
In short: as §1

DIPGX29 [25] = assay: area under dose-response curve of % growth inhibition (log2 RLU vs DMSO / staurosporine), 1e-11 to 1e-4 M (% x log10 M); higher = more growth inhibition
In short: (§2)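 Patient-derived pHGG/DIPG cell lines and astrocytes were plated in 384-well plates coated with 1% Geltrex and treated in triplicate with a 10-point threefold dilution series whose mean top concentration was 35 μM, for 7 days (3 days for iAstro) at 37 °C and 5% CO2. CellTiter-Glo luminescence was log2-transformed and scaled on each plate to % activity between solvent and positive controls. Area under the curve came from the trapezoid rule applied to a fitted log-logistic curve, or to a smoothing spline where the sigmoid fit failed.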

DIPGX37 [26] = assay: as above
In short: as §2

DIPGX7 [27] = assay: as above
In short: as §2

DIPGX9 [28] = assay: as above
In short: as §2

HABS [29] = assay: as above
In short: as §2

HGGX2 [30] = paediatric high-grade glioma line; assay: as above
In short: as §2

HGGX39 [31] = assay: as above
In short: as §2

HGGX42 [32] = H3.3 G34R paediatric high-grade glioma line; assay: as above
In short: as §2

HGGX6 [33] = assay: as above
In short: as §2

SUDIPGIV [34] = assay: as above
In short: as §2

SUDIPGVI [35] = assay: as above
In short: as §2

SUDIPGXIII [36] = assay: as above
In short: as §2

SUDIPGXIX [37] = assay: as above
In short: as §2

SUDIPGXVII [38] = assay: as above
In short: as §2

SUDIPGXXI = diffuse intrinsic pontine glioma line; assay: as above
In short: as §2

iAstro [39] = astrocyte control; assay: as above
In short: as §2

HGGX2 [40] = assay: EC50 (inflection of fitted growth-inhibition curve) (log10 M)
In short: as §1

HGGX42 [41] = assay: as above
In short: as §1

HGGX2 [42] = assay: maximal growth inhibition (yFin) relative to DMSO / staurosporine; higher = more efficacious
In short: as §1

HGGX42 [43] = assay: as above
In short: as §1

iAstro [44] = assay: EC50 (inflection of fitted growth-inhibition curve) (log10 M)
In short: as §1

iAstro [45] = assay: maximal growth inhibition (yFin) relative to DMSO / staurosporine; higher = more efficacious
In short: as §1

CC(C)c1cc(-c2n[nH]c(=O)n2-c2ccc3c(ccn3C)c2)c(O)cc1O [GANETESPIB]
EC50 (log10 M) (DIPGX29 [1]): -7.76 | EC50 (log10 M) (DIPGX37 [2]): -7.76 | EC50 (log10 M) (DIPGX7 [3]): -6.1 | EC50 (log10 M) (DIPGX9 [4]): -7.98 | EC50 (log10 M) (HABS [5]): -7.9 | EC50 (log10 M) (HGGX39 [6]): -7.51 | EC50 (log10 M) (HGGX6 [7]): -7.85 | EC50 (log10 M) (SUDIPGIV [8]): -8.08 | EC50 (log10 M) (SUDIPGVI [9]): -7.86 | EC50 (log10 M) (SUDIPGXIII [10]): -7.84 | EC50 (log10 M) (SUDIPGXIX [11]): -8.72 | EC50 (log10 M) (SUDIPGXVII [12]): -7.92 | maximal growth inhibition (DIPGX29 [13]): 51.8% | maximal growth inhibition (DIPGX37 [14]): 81.5% | maximal growth inhibition (DIPGX7 [15]): 44.1% | maximal growth inhibition (DIPGX9 [16]): 114% | maximal growth inhibition (HABS [17]): 84.5% | maximal growth inhibition (HGGX39 [18]): 77.3% | maximal growth inhibition (HGGX6 [19]): 39.8% | maximal growth inhibition (SUDIPGIV [20]): 58.4% | maximal growth inhibition (SUDIPGVI [21]): 41.2% | maximal growth inhibition (SUDIPGXIII [22]): 56% | maximal growth inhibition (SUDIPGXIX [23]): 87.3% | maximal growth inhibition (SUDIPGXVII [24]): 61.6% | area under dose-response curve (DIPGX29 [25]): 195 | area under dose-response curve (DIPGX37 [26]): 306 | area under dose-response curve (DIPGX7 [27]): 106 | area under dose-response curve (DIPGX9 [28]): 440 | area under dose-response curve (HABS [29]): 329 | area under dose-response curve (HGGX2 [30]): 257 | area under dose-response curve (HGGX39 [31]): 271 | area under dose-response curve (HGGX42 [32]): 226 | area under dose-response curve (HGGX6 [33]): 153 | area under dose-response curve (SUDIPGIV [34]): 238 | area under dose-response curve (SUDIPGVI [35]): 158 | area under dose-response curve (SUDIPGXIII [36]): 215 | area under dose-response curve (SUDIPGXIX [37]): 395 | area under dose-response curve (SUDIPGXVII [38]): 242 | area under dose-response curve (SUDIPGXXI): 432 | area under dose-response curve (iAstro [39]): 164

N#CN=C(NCCCCCCOc1ccc(Cl)cc1)Nc1ccncc1 [GMX-1778]
EC50 (log10 M) (DIPGX37 [2]): -8.03 | EC50 (log10 M) (DIPGX7 [3]): -7.31 | EC50 (log10 M) (DIPGX9 [4]): -8.21 | EC50 (log10 M) (HABS [5]): -7.62 | EC50 (log10 M) (HGGX2 [40]): -8.25 | EC50 (log10 M) (HGGX39 [6]): -7.85 | EC50 (log10 M) (HGGX42 [41]): -7.48 | EC50 (log10 M) (HGGX6 [7]): -7.85 | EC50 (log10 M) (SUDIPGIV [8]): -7.21 | EC50 (log10 M) (SUDIPGVI [9]): -7.79 | EC50 (log10 M) (SUDIPGXIII [10]): -7.54 | EC50 (log10 M) (SUDIPGXIX [11]): -7.5 | EC50 (log10 M) (SUDIPGXVII [12]): -7.44 | maximal growth inhibition (DIPGX37 [14]): 77.2% | maximal growth inhibition (DIPGX7 [15]): 114% | maximal growth inhibition (DIPGX9 [16]): 63.3% | maximal growth inhibition (HABS [17]): 76% | maximal growth inhibition (HGGX2 [42]): 103% | maximal growth inhibition (HGGX39 [18]): 74.6% | maximal growth inhibition (HGGX42 [43]): 90.6% | maximal growth inhibition (HGGX6 [19]): 74.7% | maximal growth inhibition (SUDIPGIV [20]): 104% | maximal growth inhibition (SUDIPGVI [21]): 93.6% | maximal growth inhibition (SUDIPGXIII [22]): 94.5% | maximal growth inhibition (SUDIPGXIX [23]): 127% | maximal growth inhibition (SUDIPGXVII [24]): 71.3% | area under dose-response curve (DIPGX29 [25]): 465 | area under dose-response curve (DIPGX37 [26]): 311 | area under dose-response curve (DIPGX7 [27]): 380 | area under dose-response curve (DIPGX9 [28]): 267 | area under dose-response curve (HABS [29]): 275 | area under dose-response curve (HGGX2 [30]): 426 | area under dose-response curve (HGGX39 [31]): 287 | area under dose-response curve (HGGX42 [32]): 315 | area under dose-response curve (HGGX6 [33]): 288 | area under dose-response curve (SUDIPGIV [34]): 333 | area under dose-response curve (SUDIPGVI [35]): 354 | area under dose-response curve (SUDIPGXIII [36]): 335 | area under dose-response curve (SUDIPGXIX [37]): 444 | area under dose-response curve (SUDIPGXVII [38]): 245 | area under dose-response curve (SUDIPGXXI): 587 | area under dose-response curve (iAstro [39]): 314

CC[C@]1(O)C[C@H]2CN(CCc3c([nH]c4ccccc34)[C@@](C(=O)OC)(c3cc4c(cc3OC)N(C=O)[C@H]3[C@@](O)(C(=O)OC)[C@H](OC(C)=O)[C@]5(CC)C=CCN6CC[C@]43[C@@H]65)C2)C1 [VINCRISTINE]
EC50 (log10 M) (DIPGX7 [3]): -5.71 | EC50 (log10 M) (HGGX2 [40]): -7.75 | EC50 (log10 M) (HGGX42 [41]): -4.84 | EC50 (log10 M) (SUDIPGIV [8]): -6.56 | EC50 (log10 M) (SUDIPGVI [9]): -7.28 | EC50 (log10 M) (SUDIPGXIII [10]): -5.77 | EC50 (log10 M) (SUDIPGXIX [11]): -6.46 | EC50 (log10 M) (iAstro [44]): -5.97 | maximal growth inhibition (DIPGX7 [15]): 95.3% | maximal growth inhibition (HGGX2 [42]): 92.8% | maximal growth inhibition (HGGX42 [43]): 97.3% | maximal growth inhibition (SUDIPGIV [20]): 101% | maximal growth inhibition (SUDIPGVI [21]): 77.9% | maximal growth inhibition (SUDIPGXIII [22]): 64% | maximal growth inhibition (SUDIPGXIX [23]): 98.2% | maximal growth inhibition (iAstro [45]): 61.4% | area under dose-response curve (DIPGX29 [25]): 163 | area under dose-response curve (DIPGX37 [26]): 189 | area under dose-response curve (DIPGX7 [27]): 212 | area under dose-response curve (DIPGX9 [28]): 292 | area under dose-response curve (HABS [29]): 200 | area under dose-response curve (HGGX2 [30]): 345 | area under dose-response curve (HGGX39 [31]): 152 | area under dose-response curve (HGGX42 [32]): 103 | area under dose-response curve (HGGX6 [33]): 99.2 | area under dose-response curve (SUDIPGIV [34]): 284 | area under dose-response curve (SUDIPGVI [35]): 256 | area under dose-response curve (SUDIPGXIII [36]): 123 | area under dose-response curve (SUDIPGXIX [37]): 253 | area under dose-response curve (SUDIPGXVII [38]): 187 | area under dose-response curve (SUDIPGXXI): 606 | area under dose-response curve (iAstro [39]): 127
